In US10653364B2, “Method for the continuous evaluation of the ventriculo-aortic coupling of at-risk patients by analysis of pressure-flow loops” (Assistance Publique—Hopitaux de Paris, priority 2014, dated 2020):

System: major neurosurgery patients
Assay: Aortic Pressure/Flow loop parameters before (T0) and at peak effect (T1) of a vasoconstrictor bolus in anesthetized patients
Assay type: in vivo, human
Set-up: S1, Base / S2, Base / S3, Base / Alpha, Base / Beta, Base / Gamma, Base / Alpha, Variations (Diff) / Beta, Variations (Diff) / Gamma, Variations (Diff) / S1, Variations (Diff) / S2, Variations (Diff) / S3, Variations (Diff): unit not given here
Settings: for S2/Stot, Base / Alpha, Base / Beta, Base / Gamma, Base / S1, Base / S2, Base / S3, Base / S tot, Base: Base (T0, before injection); for Alpha, Base / Beta, Base / Gamma, Base: P/F loop angle; for S1, Base: P/F loop surface area S1; for S2, Base: P/F loop surface area S2; for S3, Base: P/F loop surface area S3; for Alpha, Peak / Beta, Peak / Gamma, Peak / S1, Peak / S2, Peak / S2/Stot, Peak / S3, Peak: Peak effect (T1) after peripheral venous bolus; for change in surface areas (Stot, S1, S2, S3) and angles (alpha, beta and gamma): before and after vasoconstriction, predominantly; for S tot, Base / S tot, Peak: total surface area of P/F loop; for S tot, Peak: Peak effect (T1) after peripheral venous bolus (9 mg Ephedrine, 50 μg Neophenylephrine or 5 μg Noradrenaline)
From the text: 1.1 Parameters Measured • The Pressure signal is collected in mmHg (FIG. 2), by means of a radial or femoral arterial catheter. • The esophageal Doppler signal giving the aortic flow in ml/s (FIG. 2) is collected via the Deltex® combi Q monitor. • The Pressure/Flow loop is constructed heart beat by heart beat with the simultaneous values of aortic flow on the x-axis and of pressure on the y-axis.
1.2 Description of the Various Parameters Resulting from the Aortic Pressure/Flow Loop: • the various specific points of the loop (FIG. 3-4): • A: diastolic pressure: the flow is zero before the beginning of systole. • B: maximum flow. • C: maximum pressure (systolic pressure). • D: dicrotic pressure: pressure at closing of the aortic valves: flow at 0, beginning of diastole. • The various specific straight lines of the loop: • straight line passing through points A and B: straight line between the beginning of the cycle and the point where the flow rate is at the maximum. • straight line passing through points A and C: straight line between the beginning of the cycle and the point where the pressure is at the maximum. • The various specific surface areas of the loop (FIG. 5): • Stot: total surface area of the Pressure/Flow loop. • S1: surface area between the lower part of the curve and the straight line (AB). • S2: surface area of the loop included between the two straight lines (AB) and (AC). • S3: surface area of the loop included between the straight line (AC) and the upper edge of the loop. • The various angles of the loop (FIG. 6): • Alpha: angle between the horizontal passing through point A and the straight line (AB). • Beta: angle between the horizontal passing through point A and the straight line (AC). • Gamma: angle between the two straight lines (AB) and (AC).
The study was carried out in the operating theatre on major neurosurgery patients, after agreement from the Ethics Committee (CE SRLF 11-356) and obtaining of informed consent. In addition to the standard monitoring, a device for simultaneous invasive measurement of arterial pressure and measurement of cardiac output by trans-esophageal Doppler (CombiQ®, Deltex Medical) was set out after induction of general anesthesia. Moreover, in order to have a reflection of arterial elastance and of arterial stiffness, an arterial tonometer (SphygmoCor®, AtCor Medical) was used to obtain the curve of central arterial pressure and the arterial stiffness indices. This device is currently the reference for quantifying arterial stiffness (represented by the augmentation index: Aix, FIG. 11) and monitors its evolution as a function of vasoactive therapies.
Patients having episodes of decrease in arterial pressure (decrease of 20% compared with the target pressure) and requiring the administration of a vasoconstrictor were included. Before each injection of […] (T0) and then at the time of the peak effect of the vasopressin (T1) the Pressure/Flow loops were plotted and the parameters derived from the loop were calculated. At the same time, using the SphygmoCor®, the augmentation index (Aix) and the arterial elastance (Ea) were recorded.
Depending on the anesthetists' choice, the patients received either 9 mg of Ephedrine, or 50 μg of Neophenylephrine, or 5 μg of Noradrenaline administered via a peripheral venous route.
Statistical Analysis: • search for the correlation between the Aix measured by SphygmoCor®, with the parameters of the P/F loop at T0 and at T1. • comparison of the evolution of the parameters of the P/F loop as a function of the use of Ephedrine, of Neosynephrine or of Noradrenaline. • comparison of the parameters of the P/F loop at T0 between the patients having cardiovascular risk factors and the patients not having risk factors. • study of the variations of the parameters of the P/F loop before and after vasoconstriction as a function of the patient's susceptibility to illness and of the type of vasoconstrictor used.

| SMILES | S2/Stot, Base | Alpha, Base | Beta, Base | Gamma, Base | S1, Base | S2, Base | S3, Base | Alpha, Peak | Beta, Peak | Gamma, Peak | S1, Peak | S2, Peak | S2/Stot, Peak | S3, Peak | change in surface areas (Stot, S1, S2, S3) and angles (alpha, beta and gamma) | S tot, Base | S tot, Peak | also measured |
| --- | --- | --- | --- | --- | --- | --- | --- | --- | --- | --- | --- | --- | --- | --- | --- | --- | --- | --- |
| CN[C@@H](C)[C@H](O)c1ccccc1 [Ephedrine] | 34.2 | 7.4 | 10.9 | 1.8 | 1997 | 1709 | 1658.8 | 9.5 | 13.3 | 2.4 | 2722 | 2694.4 | 32.6 | 2242.5 | significant increase | 4889 | 6974 |  |
| CNC[C@H](O)c1cccc(O)c1 [Neosynephrine] | 26.9 | 8.5 | 11.2 | 2.1 | 2028 | 1255.2 | 1851.1 | 10.6 | 16.2 | 5.4 | 2516 | 2624.7 | 31.2 | 2452.2 | significant increase | 5344 | 7412 | increase of the beta and gamma angles (FIG. 13, for similar pressure increases induced by the vasoconstrictors): significantly more than Noradrenaline and Ephedrine; Alpha, Variations (Diff) (NEOSYNEPHRINE vs NORADRENALINE): −0.02; Beta, Variations (Diff) (NEOSYNEPHRINE vs NORADRENALINE): 2.55; Gamma, Variations (Diff) (NEOSYNEPHRINE vs NORADRENALINE): 2.59; S1, Variations (Diff) (NEOSYNEPHRINE vs NORADRENALINE): 266.01; S1/Stot %, Variations (Diff) (NEOSYNEPHRINE vs NORADRENALINE): −4.61%; S2, Variations (Diff) (NEOSYNEPHRINE vs NORADRENALINE): 615.97; S2/Stot %, Variations (Diff) (NEOSYNEPHRINE vs NORADRENALINE): 6.6%; S3, Variations (Diff) (NEOSYNEPHRINE vs NORADRENALINE): 221.27; S3/Stot %, Variations (Diff) (NEOSYNEPHRINE vs NORADRENALINE): −2.13%; S tot, Variations (Diff) (NEOSYNEPHRINE vs NORADRENALINE): 1072.27; increase with respect to Stot, beta, gamma and S2 (absolute and S2/Stot) (compared with the other two vasoconstrictors): greater increase than the other two vasoconstrictors; effect on ventricular-aortic coupling (reflected by greater increase in S2 and in beta and gamma angles): detrimental effect |
| NC[C@H](O)c1ccc(O)c(O)c1 [Noradrenaline] | 26.4 | 8.5 | 11.5 | 2.2 | 1775 | 1215.9 | 1860.8 | 10.6 | 14.2 | 3.2 | 1963.2 | 1957.4 | 27.9 | 2311.5 | significant increase | 5291 | 6582 |  |
